According to patent US7691874B2, “Neuroprotective properties of dextrorotatory morphinans” (priority 2004, dated 2010):

Experiments:
cocaine-treated mice [1] = experiment: Cocaine-induced behavioural sensitization with CB1 modulation
MPTP-treated mice [2] = experiment: MPTP-induced loss of nigral TH-IR with CB1 agonist/antagonist and HM; type: in vivo; settings: combined with HM 20 mg/kg i.p.
Protocol: CB1 agonist or antagonist was administered 45 min before every MPTP, while HM was injected 30 min before every MPTP (20 mg/kg, i.p./day×7). Compounds were administered for 7 days post-final MPTP.

MA-treated mice [3] = experiment: MA-induced loss of nigral TH-IR with CB1 agonist/antagonist and HM
Protocol: Compounds were administered 3 days before and after MA injection.

cocaine-treated mice [4] = experiment: Cocaine-induced conditioned place preference with CB1 modulation
Protocol: (§1) The control mice received an i.p. injection of saline just before entering the white or black compartment. Cocaine or MA dissolved in saline was administered immediately before the mice were placed in the white compartment. To test the effect of cocaine alone or MA alone or in combination with exemplified morphinans (DM, HM, AM, CM or DF), each morphinan was administered 2 hr before cocaine or saline injection.
(§2) On day 1, the mice were pre-exposed to the test apparatus for 5 min. The guillotine doors were raised and the mice were allowed to move freely between the two compartments. On day 2, the time each mouse spent in each compartment was recorded for 15 min. On days 3, 5, 7, 9, 11, and 13, the mice were injected with cocaine before being confined to the white compartment, the non-preferred side, for 20 min. On days 4, 6, 8, 10, and 12, the mice were injected with saline before being confined to the black compartment, the preferred side, for 20 min. On day 14, the guillotine doors were raised. The mice were initially placed in the tunnel and the time spent by the mice in the two compartments was recorded for 15 min. The scores were calculated from the differences in the time spent in the white compartment in the testing and pre-testing phases.

LPS-treated mice [5] = experiment: LPS-induced loss of nigral TH-IR with CB1 agonist/antagonist and HM; type: in vivo
Protocol: Mortality was observed by 2 weeks after bilateral LPS intrastriatal injection (one side: 2 μg×2).

MA-treated mice [6] = experiment: MA-induced behavioural sensitization
Protocol: Morphinans (20 mg/kg, i.p.) were administered last 3 days of wash-out period.

LPS-treated mice [7] = experiment: LPS-induced mortality with CB1 agonist/antagonist and HM; type: in vivo
MA-treated mice [8] = experiment: MA-induced conditioned place preference with CB1 modulation
Protocol: as §1, §2

MA-treated mice [9] = experiment: MA model, HM versus L-dopa/carbidopa: locomotor activity; type: in vivo; settings: 3 days after MA
MA-treated mice [10] = experiment: MA model, HM versus L-dopa/carbidopa: hyperthermia; type: in vivo; settings: MA 7.5 mg/kg i.p. x 4
Protocol: FIGS. 31A-31B show effect of drugs on the MA-induced hyperthermia. Mice received MA injections as 2 hrs' time interval under the ambient temperature of 22.0±0.5° C.
Experimental paradigm for MA with or without compounds is in FIG. 30. Treatment with MA (7.5 mg/kg, i.p.×four times as two hour time interval) produces hyperthermia (P<0.01).

LPS-treated mice [11] = experiment: LPS model, HM versus L-dopa/carbidopa: locomotor activity; type: in vivo; settings: 3 weeks after LPS
Protocol: Locomotor activity was examined for 60 min at 3 weeks after LPS treatment. LPS-induced significant reduction (P<0.01 vs. saline treatment) in locomotor activity was attenuated by L-dopa (P<0.05), carbidopa+L-dopa (P<0.05) or HM (P<0.01) (FIGS. 24 and 25).

LPS-treated mice [12] = experiment: LPS model, HM versus L-dopa/carbidopa: nigral TH-IR; settings: mouse, in vivo
From the text: FIG. 27 show effects of carbidopa, L-dopa, carbidopa+L-dopa and HM on the nigral tyrosine hydroxylase-like immunoreactivity (TH-IR) of the mice treated with LPS.

LPS-treated mice [13] = experiment: LPS model, HM versus L-dopa/carbidopa: mortality; type: in vivo; settings: intrastriatal LPS 2 μg x 4/head; 2 weeks
Protocol: Mortality was observed by 2 weeks after LPS injection. *P<0.01 vs. Saline+LPS (x^2-test).
The neuroprotective effect of HM was compared with L-dopa, carbidopa, or carbidopa plus L-dopa in response to dopaminergic damage induced by LPS. Intrastriatal injection of LPS (2 μg×4/head) produced high mortality (ten animals died out of twelve animals in the 2 weeks after LPS administration).

LPS-treated mice [14] = experiment: LPS model, HM versus L-dopa/carbidopa: microglia F4/80-like immunoreactivity; type: in vivo; settings: substantia nigra
MPTP-treated mice [15] = experiment: MPTP model, HM versus L-dopa/carbidopa: locomotor activity; type: in vivo; settings: HM 24 mg/kg i.p., L-dopa 200 mg/kg p.o., carbidopa 20 mg/kg p.o., 2 weeks before MPTP
Protocol: FIGS. 20A-20B show effects of carbidopa, L-dopa, carbidopa+L-dopa and HM on the changes in locomotor activity (A) and locomotor pattern (B) induced by MPTP in mice.
A prescription drug for treating Parkinsonian patients is L-dopa or carbidopa plus L-dopa. Thus, the neuroprotective effects of HM was compared with L-dopa, carbidopa, or carbidopa plus L-dopa. […] Locomotor activity was examined for 60 min after final treatment of MPTP. Mice were sacrificed at 24 h after final MPTP administration. HM (24 mg/kg, i.p.), L-dopa (200 mg/kg, p.o.) with or without carbidopa (20 mg/kg, p.o.) was administered for 2 weeks before first MPTP challenge.

CCCCC/C=C\C/C=C\C/C=C\C/C=C\CCCC(=O)NCCCl [ACEA, arachidonyl-2-chloroethylamide]
behavioural effects of the compound itself (cocaine-treated mice [1]; AM 251 0.3, ACEA 2, HM 20 mg/kg, no cocaine): Neither saline-, AM 251 (0.3 mg/kg)-, ACEA (2 mg/kg)-treated nor HM (20 mg/kg)-treated animals showed any specific behavioural effects | effect on cocaine-induced behavioural sensitization (cocaine-treated mice [1]; cocaine 10 mg/kg/day i.p. x 7, challenge one month later): Neither ACEA nor AM 251 alter behavioural sensitization by cocaine | effect on HM's effect in response to cocaine-induced sensitization (cocaine-treated mice [1]; combined with HM): Neither ACEA nor AM 251 significantly alter HM's effect | effect on MPTP-induced loss in TH-IR when combined with HM / on HM's action (MPTP-treated mice [2]): counteracted HM's neuroprotective action | effect on MA-induced reduction in TH-IR when combined with HM / on HM's effect (MA-treated mice [3]; combined with HM 20 mg/kg): reversed HM's protective effect | effect on MA-induced reduction in nigral TH-IR (MA-treated mice [3]; given alone): did not alter MA-induced reduction in TH-IR | CPP response of the compound itself (cocaine-treated mice [4]; AM 251 0.3, HM 20, ACEA 2 mg/kg, no cocaine): showed CPP effects | effect on cocaine-induced CPP (cocaine-treated mice [4]; cocaine 10 mg/kg): did not alter CPP effects by cocaine | effect on HM's effect in response to cocaine-induced CPP (cocaine-treated mice [4]; combined with HM 20 mg/kg): appears to counteract the cocaine-induced CPP | effect on LPS-induced loss in TH-IR when combined with HM / on HM's effect (LPS-treated mice [5]; combined with HM): counteracted HM's protective effect | effect on LPS-induced reduction in nigral TH-IR (LPS-treated mice [5]; given alone): did not alter LPS-induced reduction in TH-IR | behavioural effects of the compound itself (MA-treated mice [6]; AM 251 0.3, ACEA 2, HM 20 mg/kg, no MA (Ex. 3.14)): Neither saline-, AM 251 (0.3 mg/kg)-, ACEA (2 mg/kg)-treated nor HM (20 mg/kg)-treated animals showed any behavioural effects | effect on MA-induced behavioural sensitization (CB1 modulation study) (MA-treated mice [6]; MA 1 mg/kg i.p./day x 7, challenge one week later (Ex. 3.14)): Neither ACEA nor AM 251 influenced behavioural sensitization by cocaine | effect on HM's effect on MA-induced sensitization (MA-treated mice [6]; combined with HM): significantly reversed HM's effect | effect on HM-induced protective (anti-mortal) effect (LPS-treated mice [7]; combined with HM 20 mg/kg): reversed HM-induced protective (anti-mortal) effect | effect on LPS-induced mortality (LPS-treated mice [7]; given alone: HM 20, ACEA 2, AM-251 0.3 mg/kg, 2 weeks after bilateral intrastriatal LPS): Neither AM-251 nor ACEA significantly changed LPS-induced mortality | CPP response of the compound itself (MA-treated mice [8]; AM 251 0.3, HM 20, ACEA 2 mg/kg i.p., no MA): showed CPP effects | effect on HM's effect in response to MA-induced CPP (MA-treated mice [8]; combined with HM): significantly counteracted | effect on MA-induced CPP (MA-treated mice [8]; mouse, in vivo): did not alter CPP effects by MA

N[C@@H](Cc1ccc(O)c(O)c1)C(=O)O [L-dopa]
effect on MA-induced reduction in locomotor activity (MA-treated mice [9]): significantly enhanced | effect on MA-induced hyperthermia (MA-treated mice [10]): significantly attenenuated | effect on LPS-induced reduction in locomotor activity (LPS-treated mice [11]): attenuated | effect on LPS-induced loss in nigral TH-IR (LPS-treated mice [12]): significantly attenuated | effect on mortality induced by LPS (LPS-treated mice [13]): appears to attenuate mortality induced by LPS | effect on LPS-induced increase in F4/80-like immunoreactivity (microglia) (LPS-treated mice [14]): significantly attenuated | effect on MPTP-induced decrease in locomotor activity (MPTP-treated mice [15]): appeared to increase
